From US20260207581A1, “Small Molecule Inhibitor for Inflammatory Pain Inhibition” (University of Rochester, priority 2023, published 2026)
Entries after “also recorded” stand apart in the source; their conditions may differ.

Legend:
[1] = test system: SETD1, IL-6 and MMP2 expression; assay: qRT-PCR and Western blotting of selected inflammatory genes under TNFα; type: cell-based, rat
RSSCs = assay: BrdU labeling and β-gal senescence staining of TNF-α treated RSSCs; type: cell-based, rat; conditions: RSSCs treated with TNFα
IL-1β expression = assay: Cultured condyle organs treated with IL-6, IL-1β immunostaining; type: cell-based; conditions: IL-6 plus PFI-2
SETD7 [2] = target: T1, SETD7 (Rattus norvegicus, UniProt A0A8I6A0F7); assay: SETD7 and YAP localization and protein methylation in TNF-α treated RSSCs; type: cell-based; conditions: RSSCs treated with TNF-α
T1 construct: endogenous in cells; host or cells: primary rat synovial mesenchymal stem cells (RSSCs)
T1 sequence (A0A8I6A0F7 1-367): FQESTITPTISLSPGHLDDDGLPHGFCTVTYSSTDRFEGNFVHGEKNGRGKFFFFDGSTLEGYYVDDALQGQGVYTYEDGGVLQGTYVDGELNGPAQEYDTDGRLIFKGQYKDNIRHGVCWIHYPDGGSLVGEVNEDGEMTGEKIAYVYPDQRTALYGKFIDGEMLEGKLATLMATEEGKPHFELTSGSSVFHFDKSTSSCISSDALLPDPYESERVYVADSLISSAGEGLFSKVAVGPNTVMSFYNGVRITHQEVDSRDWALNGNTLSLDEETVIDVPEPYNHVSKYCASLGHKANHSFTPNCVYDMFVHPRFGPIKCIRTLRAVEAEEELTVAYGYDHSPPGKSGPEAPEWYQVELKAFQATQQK
Description: As a first step, the expression and localization of SETD7 and YAP are examined in RCs and RSSCs at the mRNA and protein level under physiological and inflammatory conditions. RCs and RSSCs are cultured with or without TNF-α for 6, 12, and 24 hours. Proteins and mRNAs from cultured cells are isolated for RT-PCR and Western Blot analyses. The localization of SETD7 and YAP in relationship toward each other is visualized by immunofluorescence, and the methylation levels and distribution of YAP in nuclei and cytoplasm are determined by Western blotting using anti-SETD7 and anti-YAP antibodies (Abcam). To determine whether YAP and SETD7 interact, co-immunoprecipitation assays is performed, and the degree of interaction between SETD7 and YAP is compared between TNF-α-treated cells and control cells (Ito et al. 2011).
Rat synovial mesenchymal stem cells (RSSCs) were cultured and examined for SETD7 nuclear localization.

TMJ tissues = assay: CFA injection rat model of inflammatory TMD: swelling, uCT and histology of TMJ tissues; type: in vivo
YAP1 = assay: YAP / Sox9 immunolocalization in TMJ discs and condylar growth plate of the CFA model; type: in vivo, rat
Description: Because of this initial success, it was further examined if PFI-2 treatment could rescue inhibition of chondrocyte maturation and return YAP expression in the condylar growth plate of animals suffering from inflammation. To test the ability to repair damage, animals were injected with saline or CFA. After inflammation, a subset of the CFA-treated animals were also injected with PFI-2. Tissue samples from each were stained with H&E, safranin O, and PCNA, YAP was detected by immunostaining, and cartilage differentiation was determined by immunostaining for Sox 9 (FIG. 3A-FIG. 3O). The samples were also examined by RT-PCR for expression levels of collagen 2, collagen 10, Mmp 13 metalloproteinase, Runx2 bone transcription factor, and Sox 9 (FIG. 3P).
Here, the role of the Hippo pathway effectors YAP and TAZ is elucidated in an inflammatory TMD models. YAP and TAZ interact with DNA-binding factors of the TEAD family in the nucleus to regulate gene expression. […] First, the expression and subcellular localization of YAP is characterized under physiological and inflammatory conditions in TMJ tissues, RSSCs and RCs. The expression pattern of the YAP protein in TMJ tissues are elucidated by immunohistochemistry using anti-YAP antibody and the expression levels of YAP mRNA and protein is determined using qRT-PCR and Western blotting. […]

[3] = test system: TNFα-induced cell infiltration; assay: Subcutaneous implantation of coated collagen sponges; type: in vivo; conditions: sponges coated with TNFα plus PFI-2
Description: In vivo analysis was examined by subcutaneous implantation of collagen sponges coated with PBS, TNF-α, or TNF-α and PFI-2.

[4] = test system: inflammatory genes, matrix proteins, adhesion molecules and neuropeptides in TMJ tissues; assay: qRT-PCR analysis of gene expression in TMJ tissues of the CFA model; type: in vivo, rat
Description: To see if this reduction in inflammation and its associated damage could provide therapeutic benefit, the ability of PFI-2 to reduce inflammatory pain was examined. Animals were injected with saline or CFA and meal duration, a proxy for pain, was examined over a span of 21 days post-injection. […] Calcitonin gene-related peptide (CGRP) localization and expression in the synovial membrane were examined by immunostaining, where it was observed that CGRP was localization in synovial cells and neurons was increased in animals treated with CFA (FIG. 4C and FIG. 4D).
Expression of Osteogenic, Chondrogenic and Inflammatory Genes in a TMD model: To generate benchmark data for functional and mechanistic studies TMJ discs, synovia, and condyles are dissected and mRNA and protein expression levels of bone marker genes measured, including collagen type I (Col I), alkaline phosphatase (Alp), Runx2, Osterix (Osx), osteocalcin (Ocn), and bone sialoprotein (Ibsp), as well as cartilage marker genes such as collagen II, Sox 9, Col X, and biglycans. To characterize the effect of the YAP upregulator PFI-2 on inflammation and osteoclast formation, the expression of inflammatory cytokines (IL-1b, IL-6, TNF-α), NF-κB, MMPs (MMP2, MMP9 and MMP13), adhesion molecules (CDH11, ICAM, Integrin β1), and osteoclastogenesis-related genes (Rank, Rankl, Opg, Trap5b, and NFATc1) is detected using quantitative RT-PCR and Western blotting as described by Walker et al. (2010). Localization of these genes in the inflamed TMJ is further specified using immunofluorescence.
Inflammatory Changes in the Expression of Neuropeptides CGRP, NPY and SP1 in vivo and in vitro: For in vivo studies, rat TMJ discs, synovial membrane, condyle, trigeminal ganglia and trigeminal nucleus caudalis are collected bilaterally from saline-or CFA-treated rats for RNA and protein isolation, and histological analysis. The expression of CGRP, NPY, TAC1, and Galanin (GAL) at gene and protein levels are measured using qRT-PCR and Western blotting. For histology, tissues are fixed in 4% paraformaldehyde and prepared for paraffin sections as described previously (Lu et al, 2016a, b). Cells and neurons positive for CGRP, NPY, SP1 (an isoform of TAC1 protein) and Gal are visualized via immunofluorescence or immunohistochemistry using antibodies against CGRP, GAL, NYP, and TAC1 (Abcam). Expression levels of these genes and the numbers of immunoreactive cells are compared between different treatment groups.

inflammatory TMD pain = assay: Place escape/avoidance paradigm (PEAP) pain behavior in inflammatory TMD model; type: in vivo, rat; conditions: for time spent in the dark half of the PEAP chamber: CFA plus PFI-2 injection
Description: Effect of PFI-2 Mediation on Inflammatory Conditions and Pain: Tmj pain is assessed as meal duration and via Place Escape Avoidance Paradigm (PEAP)-based measures (FIG. 1, Vertebrate Justification section). Testing is performed in both male and female rats as sex differences have been observed in humans and animals. Female animals are tested for the estrous cycle and the results are reported for the di-estrus, estrus, and pro-estrus phases (Kramer, Bellinger, 2009).
Peap Testing: the Chamber Used for the Place Escape Avoidance Paradigm (PEAP) testing is a 30 cm×30 cm acrylic box in which half the box is covered in black cloth. Each individual rat is placed into the chamber; due to their nocturnal circadian rhythm, rodents prefer the dark side of the chamber. Rats on the dark side of the chamber receive a stimulus at the injected side, whereas rats with their head on the clear side of the chamber are stimulated on the contralateral non-injected side with a 60 g filament every 15 seconds. The stimulus is administered below the eye and caudal to the whisker pad. The time spent on the dark side of the box is recorded in 5 min bins, testing is performed for a total of 30 min on the test day and thereafter on a one day a week basis for 8 weeks as previously described (Stinson et al. 2017; 2019).
Injection of PFI-2-Col I, PFI-2-decm Hydrogel and PFI-2-exosome solution into the TMJ: Four groups (SV, SP, CV, and CP) receive injections of the saline plus carrier, saline plus PFI-2 carrier, CFA plus carrier, or CFA plus PFI-2 carrier, respectively. The TMJ injection procedure is described in FIG. 1. Forty-eight hours after the injection of saline or CFA solution, PFI-2 (10 μM) in a carrier, or the carrier alone, is injected every two days, or once within 10 days. The injection times and effect duration of PFI-2 on both inflammatory degeneration and pain are optimized.
PEAP behavior of animals was investigated after administration of saline, CFA, or CFA and a PFI-2 carried by either a Col I hydrogel or a dECM hydrogel.

SETD7 [5] = target: T2, SETD7 (Homo sapiens, UniProt Q8WTS6); conditions: Francis et al. 2018; cited from earlier work
T2 sequence (Q8WTS6 1-366): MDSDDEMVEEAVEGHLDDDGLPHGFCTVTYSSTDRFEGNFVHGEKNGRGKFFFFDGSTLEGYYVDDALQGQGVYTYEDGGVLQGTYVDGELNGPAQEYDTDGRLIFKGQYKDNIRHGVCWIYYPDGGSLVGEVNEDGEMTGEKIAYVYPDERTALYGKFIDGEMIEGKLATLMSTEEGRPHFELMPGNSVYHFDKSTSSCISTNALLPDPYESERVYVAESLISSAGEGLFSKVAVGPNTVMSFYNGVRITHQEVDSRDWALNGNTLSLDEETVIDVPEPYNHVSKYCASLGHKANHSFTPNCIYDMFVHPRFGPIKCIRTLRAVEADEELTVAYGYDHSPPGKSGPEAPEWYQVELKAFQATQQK

[6] = PFI-2 injected following CFA induction of inflammatory conditions

SMILES: O=C([C@@H](Cc1cccc(C(F)(F)F)c1)NS(=O)(=O)c1cc(F)c2c(c1)CCNC2)N1CCCC1 [PFI-2]
- TNFα-induced gene dysregulation (Western blotting) [1]: confirmed
- TNFα-induced upregulation of SETD1, IL-6 and MMP2 expression (qRT-PCR) ([1]; PFI-2 at 1, 10, and 50 μM): inhibited by treatment with PFI-2 in a dose-dependent manner; also recorded: inhibited TNFα-induced upregulation in a dose-dependent manner
- BrdU positive proliferating cells (RSSCs): restored the proliferative potential of inflammation-compromised cells; also recorded: restored cellular proliferation
- β-gal+ cell senescence (RSSCs): inhibited TNFα-induced cell senescence
- IL-1β expression (immunostaining) (IL-1β expression): inhibited the expression of IL-18; also recorded: inhibited IL-1β expression
- swelling of the articular surface (thickness of fibrous and proliferative cell zones) (IL-1β expression): reversed the swelling of the articular surface
- SETD7 nuclear localization (SETD7 [2]): blocked the effect of TNF-α on SETD7 nuclear localization
- global protein methylation levels in whole cell lysates (Western blot) (SETD7 [2]): reduces methylation; also recorded: inhibited this effect
- inflammation-induced retardation of chondrocyte differentiation / condylar growth plate structure (TMJ tissues; [6]): able to reverse it; also recorded: restored condyle growth plate structure and function; also recorded: reversed
- bone volume, mechanical properties and thickness of functional condyle layers (TMJ tissues; inflammatory conditions, three PFI-2 delivery modalities): restores outcomes to near-physiological values
- regional swelling / distance between the two ear tragi (TMJ tissues; rats, 48 hours after injection, CFA-induced (10% increase with CFA)): no swelling was observed
- collagen fibers in the TMJ disc (Pico Sirius red staining) (TMJ tissues; rats, CFA model): lightened; also recorded: conversion to light red, thinner fibers
- structure and function of fibrocartilage in the TMJ (H&E) (TMJ tissues; rats, CFA model): rescued the structure and function of fibrocartilage
- thickness of the fibrous and proliferative cell layers / hypertrophic zones (H&E) (TMJ tissues; rats, CFA model): rescued; also recorded: reduced
- TMJ disc thickening and fusion with the condyle (H&E) (TMJ tissues; rats, CFA model, paraffin-embedded TMJ tissues): rescued; also recorded: detachment of the TMJ disc and condyle
- condylar bone volume and joint space between temporal fossa and condyle (uCT) (TMJ tissues; rats, CFA plus PFI-2 injection): rescued
- fibrous adhesion of TMJ disc and condylar surface (Masson trichrome) (TMJ tissues; rats, CFA-induced inflammation): prevented the attachment; also recorded: released fibrous adhesion; also recorded: de-attached the TMJ disc from the condyle
- YAP expression and localization in the condylar growth plate (YAP1; [6]): rebalance YAP1 expression; also recorded: re-localized YAP1 and SOX9 proteins; also recorded: returned YAP expression
- YAP1 immunolocalization in TMJ discs (YAP1; rats, CFA model): translocated YAP into nuclei
- cell infiltration into collagen sponges [3]: reversed inflammatory cell infiltration in tissue implants; also recorded: reversed this effect
- extracellular matrix remodeling in collagen sponges [3]: promoted extracellular matrix remodeling; also recorded: promoted ECM remodeling
- expression of CGRP, NPY and TAC in TMJ tissues (qRT-PCR) ([4]; CFA-PFI-treated (CP) vs CFA-treated (CV)): reduced to near-normal levels
- expression of CGRP, NPY and TAC in TMJ tissues (qRT-PCR) ([4]; CFA-PFI-treated (CP) vs CFA-treated (CV), listed as PFI): almost reduced to normal levels
- inflammatory gene / cytokine expression in TMD tissues (qRT-PCR) ([4]; rats, CFA model): inhibited the expression of inflammatory cytokines; also recorded: downregulated inflammatory gene expression
- matrix protein and adhesion molecule expression in TMJ tissues (qRT-PCR) ([4]; rats, CFA-PFI-treated (CP) vs CFA-treated (CV)): reversed the upregulation
- time spent in the dark half of the PEAP chamber (inflammatory TMD pain; collagen gel (Col I hydrogel) as carrier): significantly rescued; also recorded: significantly increased
- time spent in the dark half of the PEAP chamber (inflammatory TMD pain; dECM hydrogel as carrier, compared with collagen carrier): far more significant; also recorded: further improved
- inflammatory pain (inflammatory TMD pain; inflammatory TMD model): greatly reduced pain; also recorded: reduction in inflammatory pain; also recorded: reduced inflammatory pain
- time on the dark side of PEAP chambers (inflammatory TMD pain; mice subjected to inflammatory temporo-mandibular joint pain): dramatically reduced time
- inflammation and tissue regeneration in periodontal diseases (SETD7 [5]): suppresses inflammation and promotes tissue regeneration
